{
  "source": "patent US9708359B2",
  "about": "“Pyrrolopyrimidine nucleosides and analogs thereof” (Chimerix, Inc., priority 2015, dated 2017)",
  "key": {"MCMV": {"test_system": "MCMV", "assay": "Plaque-reduction assay for MCMV", "assay_type": "cell-based", "conditions": "MEF", "procedure": "Plaque-Reduction Assays for MCMV:\nMouse embryo fibroblast cells were prepared from mouse embryos using a procedure similar to that outlined above for HFF cells and suspended in tissue culture media as described above and seeded into plates and incubated. The medium was aspirated and the cell monolayers were infected with MCMV. The infected cells were then incubated at 37° C. for 1 h and the plates were rocked occasionally to ensure that the media covered the entire monolayer. Compounds were serially diluted in tissue maintenance cell culture media described above and the solutions were added to the infected monolayers. Infected monolayers were incubated for 7 d and then stained with Neutral Red solution as described above. Plaques were enumerated and EC50 values were interpolated from the experimental data by standard methods.\nMouse embryo fibroblast cells were prepared from mouse embryos using a procedure similar to that outlined above for HFF cells and suspended in tissue culture media as described above and seeded into 12 well plates and incubated at 37° C. for 24 h. The medium was aspirated and the cell monolayers were infected with the Smith strain of MCMV in a final volume of 0.2 mL in each of triplicate wells. The infected cells were then incubated at 37° C. for 1 h and the plates were rocked occasionally to ensure that the media covered the entire monolayer. […]"}, "MEV": {"test_system": "MEV", "assay": "microbe, parasite or virus in culture", "assay_type": "cell-based", "conditions": "Measles morbillivirus, Vero 76, Vero76 cells"}, "[1]": {"assay": "Cytotoxicity in lymphocyte assays, MOLT-3 cells", "assay_type": "cell-based", "conditions": "human, parallel to HHV-6B assay", "procedure": "Every antiviral assay included a parallel cytotoxicity assay with the same cells used for each virus, the same cell number, the same drug concentrations, and the same incubation times to provide the same drug exposure. To ensure that the cytotoxicity of all compounds could be compared directly, a standard neutral red uptake cytotoxicity assay for all compounds in confluent HFF cells with a 7 d incubation period was performed.\nCytotoxicity in Lymphocyte Assays:\nCell viability in all assays with lymphocytes was assessed with a luminescent Cell Viability Assay. Briefly, assay plates were incubated at ambient temperature for 30 min then luminescent reagent was added to each well and the plates were mixed to lyse the cells. Plates were then incubated for at ambient temperature and the luminescence was quantified on a luminometer. Standard methods were used to calculate drug concentrations that inhibited the proliferation of cells by 50% (CC50).\nCell viability in all assays with lymphocytes was assessed with the CellTiter-Glo Luminescent Cell Viability Assay (Promega). […] Plates were then incubated for an additional 10 min at ambient temperature and the luminescence was quantified on a luminometer. […]"}, "RSV": {"test_system": "RSV", "assay": "microbe, parasite or virus in culture", "assay_type": "cell-based", "conditions": "human respiratory syncytial virus, MA104, MA-104 cells"}, "Flu (H1N1)": {"test_system": "Flu (H1N1)", "assay": "microbe, parasite or virus in culture", "assay_type": "cell-based", "conditions": "Influenza A virus, MDCK cells"}, "JCV": {"test_system": "JCV", "assay": "qPCR assay for JCV", "assay_type": "cell-based, JC virus", "conditions": "JC polyomavirus, 293TT cells", "procedure": "qPCR Assays for BKV and JCV:\nPrimary evaluation of compounds against JC virus were also performed by methods similar to those for BK virus primary assays. Secondary assays against JCV were performed in COS7 cells by methods similar to those for BK virus to identify compounds that inhibited adsorption or penetration of the virus.\nPrimary evaluation of compounds against JC virus were also performed by methods similar to those for BK virus primary assays but were done in 293TT cells and utilized the 1-4 strain of JCV in 293TT cells. Viral DNA was quantified using primers 5′-[…]-3′ (SEQ ID No. 11) and 5′-[…]-3′ (SEQ ID No. 12) and probe 5′-6-FAM-[…]-TAMRA-3′ (SEQ ID No. 13) together with the plasmid pMP508 to provide a standard curve for absolute quantification. Secondary assays against JCV were performed in COS7 cells by methods similar to those for BK virus to identify compounds that inhibited adsorption or penetration of the virus."}, "HSV-2": {"test_system": "HSV-2", "assay": "Plaque-reduction assay for HSV-2", "assay_type": "cell-based, herpes simplex virus 2", "conditions": "Human alphaherpesvirus 2; HSV-2, HFF cells", "procedure": "Plaque-Reduction Assays for HSV-1, HSV-2, VZV and HCMV:\nMonolayers of cells were prepared in six-well plates and incubated at to allow the cells to reach confluency. Media was then aspirated from the wells and of virus was added to each of three wells to yield 20-30 plaques in each well. The virus was allowed to adsorb to the cells for 1 h and the plates were rocked gently every 15 min to redistribute the media. Compounds were diluted in maintenance cell culture media consisting of MEM with Earl's salts supplemented with 2% FBS, L-glutamine, penicillin, and gentamycin. Solutions were added to duplicate wells and the plates were incubated for various times, depending on the virus used. The plaque-reduction assay with HSV-1 strain F was performed in a similar manner but with Vero cells infected one day after plating. For HSV-1 and -2, the monolayers were stained with 1% crystal violet in 20% methanol and the unbound dye removed by washing with dH2O. For assays with HCMV and VZV, the cell monolayer was stained with 1% Neutral Red solution for 4 h then the stain was aspirated and the cells were washed with PBS. For all assays, plaques were enumerated using a stereomicroscope and the concentration of compound that reduced plaque formation by 50% (EC50) was interpolated from the experimental data. […]"}, "YFV": {"test_system": "YFV", "assay": "microbe, parasite or virus in culture", "assay_type": "cell-based", "conditions": "Yellow fever virus, Vero"}},
  "data": [
    {"compound": "Cc1nc(N)c2c(C(N)=O)cn([C@@H]3O[C@H](CO)[C@@H](O)[C@H]3O)c2n1", "note": "[Compound 1, 4-amino-7-((2R,3R,4S,5R)-3,4-dihydroxy-5-(hydroxymethyl)tetrahydrofuran-2-yl)-2-methyl-7H-pyrrolo[2,3-d]pyrimidine-5-carboxamide]", "values": [
      {"measurement": "EC50", "setting": "MCMV", "result": "> 100", "unit": "µM"},
      {"measurement": "EC50", "setting": "MEV", "result": "> 100", "unit": "µM"},
      {"measurement": "CC50", "setting": "[1]", "result": 44.7, "unit": "µM"},
      {"measurement": "EC50", "setting": "RSV", "result": 31, "unit": "µM"},
      {"measurement": "EC50", "setting": "Flu (H1N1)", "result": "> 100", "unit": "µM"},
      {"measurement": "EC50", "setting": "JCV", "result": 460, "unit": "nM"},
      {"measurement": "EC50", "setting": "HSV-2", "result": "> 60", "unit": "µM"},
      {"measurement": "EC50", "setting": "YFV", "result": "> 100", "unit": "µM"}
    ]}
  ]
}
